Experimental data reported in patent US10041044B2, “Age-associated clonal hematopoiesis accelerates cardio-metabolic disease development” (TRUSTEES OF BOSTON UNIVERSITY, priority 2016, dated 2018).

Tests used:
[1] = test system: heart failure by pressure overload (TAC) in mice; test: Pressure overload (TAC) heart failure in BMT mice; assay type: in vivo
Excerpt: 22A. Scheme of the experimental study. Mice underwent partial (10%) bone marrow reconstitution with Tet2-deficient cells or WT cells following lethal irradiation. After 8 weeks of recovery, mice underwent permanent TAC surgery to produce pressure overload on the heart. 22B. […] 22C. […] 22D. […] LVPWTd=left ventricle posterior wall thickness at diastole, FS=fractional shortening. 22E.
(§1) Heart failure was induced in C57/B16 mice by pressure overload, achieved by transverse aortic constriction (TAC), or by chronic ischemia, induced by the permanent ligation of the left anterior descending (LAD) artery (FIGS. 19, 20). In both models, Tet2-deficient hematopoietic cells were used to partially reconstitute the bone marrow of lethally irradiated mice, leading to their clonal expansion. Alternatively, Tet2 was specifically ablated in myeloid cells using Cre recombinase expressed from the LysM promoter. In mice, undergoing LAD ligation, Tet2-deficiency led to worsened cardiac remodeling and function regardless of the means of Tet2 ablation. In mice undergoing TAC, Tet2-deficiency led to greater hypertrophy and systolic dysfunction regardless of the means of Tet2 ablation.

[2] = test system: atherosclerotic plaque in Ldlr−/− BMT mice; test: Aortic root plaque size in high fat/high cholesterol diet-fed competitive-BMT Ldlr−/− mice; assay type: in vivo; conditions: continuous infusion 5 mg/kg/day via subcutaneous osmotic pumps
Method: Aortic root plaque size in high fat/high cholesterol diet-fed 10% KO-BMT mice and 10% WT-BMT. […] Representative images of hematoxylin/eosin-stained sections are shown; plaques are delineated by discontinuous lines (scale bar: 100 μm). Statistical significance was evaluated by 2-way ANOVA with Tukey multiple comparison test (*p<0.05, […]).
Lethally irradiated Ldlr−/− recipients were transplanted with suspensions of BM cells containing 10% CD45.2+ Tet2−/− cells and 90% CD45.1+ Tet2+/+ cells (10% KO-BMT mice), or 10% CD45.2+ Tet2+/+ cells and 90% CD45.1+ Tet2+/+ cells (10% WT-BMT mice) (Fig. S1). BM cells were isolated from femurs and tibias of donor mice after euthanasia. Donor CD45.2+ cells were obtained from Tet2+/+ or −/− littermates; donor CD45.1+ cells were obtained from Pep Boy mice. Recipient Ldlr−/− mice were irradiated in a pie cage (Braintree Scientific) to limit mobility and ensure equal dose of irradiation and were exposed to two radiation doses of 550 rad three hours apart using an X-RAD 320 Biological Irradiator. After the second irradiation, each recipient mouse was injected with 10^7 BM cells i.v. Sterilized caging, food and water were provided during the first 14 days post-transplant and water was supplemented with antibiotics (Sulfatrim). […]
Mice were euthanized and aortas were removed after in situ perfusion with phosphate-buffered saline (PBS) injected through the left ventricle of the heart. […] All histological sections comprising the aortic root as determined by the location of the aortic valve leaflets were cut at a thickness of 6 μm. An operator who was blinded to genotype quantified plaque size in aortic root sections by computer-assisted morphometric analysis of microscopy images acquired on a KEYENCE BZ-9000 microscope. For each mouse, atherosclerosis plaque size in aortic root cross-sections was calculated as the average of 5 independent sections separated by ˜18 μm.

[3] = test system: heart failure by chronic ischemia (LAD ligation) in mice; test: Post-infarction remodeling after permanent LAD ligation in BMT mice; assay type: in vivo
Excerpt: 21A. Scheme of the experimental study. Mice underwent partial (10%) bone marrow reconstitution with Tet2-deficient cells or WT cells following lethal irradiation. After 8 weeks of recovery, mice underwent permanent LAD ligation. PBS or MCC-950 infusion by osmotic pump was initiated 1 week after LAD ligation for 4 weeks. 21B. […] 21C.
as §1

TNF expression = test: qRT-PCR of TNF expression in LPS/IFNγ-treated peritoneal macrophages; assay type: cell-based, mouse; conditions: HDAC inhibition with TSA in macrophages
Excerpt: Although many details of its role in regulating chromatin architecture remain unknown, Tet2 has emerged as a multifaceted epigenetic regulator that is able to facilitate both transcription activation and repression depending on the molecular and cellular context. Given that Tet2 loss-of-function is associated with increased IL-1β gene expression, experiments were focused on potential mechanisms of Tet2-mediated transcriptional repression in macrophages.
(§2) Thioglycollate-elicited macrophages were obtained from the peritoneal cavity of mice 4 days after intraperitoneal injection of 1 ml of aged 4% Brewer's thioglycollate broth (BD Difco). Macrophages were allowed to adhere for 4 hours and cultured in RPMI medium supplemented with antibiotics and 10% FBS (PERFORMANCE PLUS FBS, Gibco). […] Cell cycle progression and apoptosis of cultured macrophages was evaluated by flow cytometry analysis of DNA content. […] For analysis of apoptosis induced by treatment with 7-ketocholesterol (Sigma), hypodiploid (SubG1) cells were quantified using with FLOWJO Software. Uptake of fluorescent dil-conjugated oxidized LDL (Alfa Aesar) was evaluated by flow cytometry analysis. […]
(§3) Total RNA from tissues and cultured cells was isolated using QIAZOL reagent and RNEASY kits (QIAGEN). […] Results were analyzed with the ΔΔCt method. […]

IL-6 expression = test: qRT-PCR of IL-6 expression in LPS/IFNγ-treated peritoneal macrophages; assay type: cell-based, mouse; conditions: 8 hours 10 ng/mL LPS and 2 ng/ml IFNγ; 0.5 μM TSA
Method: (§4) 14A. qRT-PCR analysis of IL-1β expression in peritoneal macrophages isolated from Tet2−/− or +/+ mice (n=3 mice/genotype) and treated for 8 hours with 10 ng/mL LPS and 2 ng/ml IFNγ in the absence or presence of 0.5 μM Trichostatin A (TSA). 14B. ChIP analysis of H3 acetylation in the IL-1β promoter of macrophages isolated from Tet2−/− or +/+ mice (n=6/genotype) after 10 hours of LPS/IFNγ treatment. 14C. qRT-PCR analysis of IL-6 expression in peritoneal macrophages isolated from Tet2−/−/ mice or +/+ controls (n=3 mice/genotype) and treated for 8 hours with 10 ng/mL LPS and 2 ng/ml IFNγ in the absence or presence of 0.5 μM TSA. 14D. […]
as §2, with “Difco).” for “Difco). Macrophages were allowed to adhere for 4 hours and cultured in RPMI medium supplemented with antibiotics and 10% FBS (PERFORMANCE PLUS FBS, Gibco).”
as §3

IL-1β expression = test: qRT-PCR of IL-1β expression in LPS/IFNγ-treated peritoneal macrophages; assay type: cell-based, mouse; conditions: 8 hours 10 ng/mL LPS and 2 ng/ml IFNγ; 0.5 μM TSA
Method: as §4
as §2, with “Difco).” for “Difco). Macrophages were allowed to adhere for 4 hours and cultured in RPMI medium supplemented with antibiotics and 10% FBS (PERFORMANCE PLUS FBS, Gibco).”
as §3

[4] = mice reconstituted with Tet2-knockout bone marrow, after pressure overload

With `CC(C)(O)c1coc(S(=O)(=O)NC(=O)Nc2c3c(cc4c2CCC4)CCC3)c1` [MCC950] the “development of heart failure” value ([1]; TAC model (FIG. 22)) was “protected against the development of heart failure”, the “difference in cardiac fibrosis between Tet2-deficient and WT conditions” value ([1]; after pressure overload) was “eliminates the difference in this parameter” and the “difference in myocyte CSA between Tet2-deficient and WT conditions” value ([1]; after pressure overload) was “eliminates the difference in this parameters”. The “differences in HW and LW between Tet2-deficient and WT conditions” value ([1]; after pressure overload) was “eliminates the differences in these parameters”, the “differences in echocardiographic parameters between Tet2-deficient and WT conditions” value ([1]; after pressure overload) was “eliminates the differences in the echocardiographic parameters” and the “heart weight (HW) and wet lung weight (LW) adjusted by tibia length (TL)” value ([1]; after pressure overload, both strains of mice) was “ameliorates the increase of cardiac and lung mass”. The “myocyte cross-sectional area (CSA)” value ([1]; after pressure overload, wild type and hematopoietic Tet2-KO mice) was “inhibits hypertrophy”, the “cardiac fibrosis (Picro sirius staining)” value [1, 4] was “can be reversed” and the “deterioration of cardiac function (echocardiographic parameters, LVPWTd, FS)” value [1, 4] was “can be reversed”. The “decrease of atherosclerotic plaque size” value ([2]; 10% KO-BMT mice) was ~50%, the “reduction of atherosclerotic plaque size” value ([2]; 10% WT-BMT controls, nonstatistically significant) was 20% and the “difference in aortic plaque size between chimeric (10% KO-BMT) and nonchimeric control mice” value [2] was “eliminated”. For the same molecule, the “differences in cardiac parameters between Tet2-deficient and WT conditions” value ([3]; 5 week time point post-LAD ligation) was “eliminates the differences in cardiac parameters”, the “development of heart failure” value ([3]; LAD ligation model (FIG. 21)) was “protected against the development of heart failure” and the “cardiac remodeling, echocardiographic ejection fraction (EF)” value ([3]; Tet2-KO and wild-type bone marrow, osmotic pump infusion from 1 week after LAD ligation for 4 weeks) was “protects against adverse cardiac remodeling”. The “differences in cell size between Tet2-deficient and WT conditions” value ([3]; after LAD ligation) was “eliminates the differences in cell size” and the “cardiac myocyte hypertrophy after LAD ligation” value ([3]; mice reconstituted with Tet2-KO and wild-type bone marrow) was “inhibits the increase in cardiac myocyte hypertrophy”.

`CC(/C=C/C(=O)NO)=C\[C@@H](C)C(=O)c1ccc(N(C)C)cc1` [Trichostatin A] was tested, and the TNF transcript expression (TNF expression) was “reduced transcript expression”, the “IL-6 expression differences between genotypes” value (IL-6 expression) was “did not affect differences between genotypes” and the “IL-6 transcript expression (qRT-PCR)” value (IL-6 expression) was “reduced transcript expression”. For the same molecule, the “IL-1β expression (qRT-PCR)” value (IL-1β expression) was “increased IL-1β expression” and the “IL-1β expression differences between Tet2-deficient and WT genotypes” value (IL-1β expression) was “abolished expression differences”.
